These results are taken from publication PMC5485613, “A novel TRPM8 agonist relieves dry eye discomfort” (BMC Ophthalmology, 2017).

For series [1], the target named is T1, human TRPM8 (Homo sapiens, UniProt Q7Z2W7).
T1 construct: host or cells: CHO cells, stably transfected
The series can be described thus: TRPM8 calcium assay (Fluo-8, FLIPR) in transfected CHO cells. It counts as cell-based. As to conditions: x Menthol. The protocol:
Compounds were tested on Chinese Hamster Ovary (CHO) cells stably transfected with human TRPM8 cDNAs using a Fluo-8 calcium kit and a Fluorescence Imaging Plate Reader ([…]™) instrument. […] Solutions were prepared by diluting stock solutions in a HEPES-buffered physiological saline (HBPS) solution. Test compound and control formulations were loaded in polypropylene or glass-lined 384-well plates, and placed into the FLIPR instrument (Molecular Devices Corporation, Union City, CA, USA). Each was tested at 8 concentrations with n = 4 replicates per determination. […] For […]™ assay, cells were plated in 384-well black wall, flat clear-bottom microtiter plates (Type: BD Biocoat Poly-D-Lysine Multiwell Cell Culture Plate) at approximately 30,000 cells per well. Cells were incubated at 37 °C overnight to reach a near confluent monolayer appropriate for use in a fluorescence assay. The test procedure was to remove the growth media and to add 40 μL of HBPS containing Fluo-8 for 30 min at 37 °C. 10 μL of test compound, vehicle, or control solutions in HBPS were added to each well and read for 4 min. Concentration-response data were analyzed via the FLIPR Control software that is supplied with the FLIPR System (MDS-AT) and fitted to a Hill equation.

For series [2], the target named is T2, human TRPA1 (Homo sapiens, UniProt O75762).
T2 construct: expressed in transfected cells; host or cells: KNRK cells (rat kidney), transiently transfected
T2 sequence (O75762 whole entry): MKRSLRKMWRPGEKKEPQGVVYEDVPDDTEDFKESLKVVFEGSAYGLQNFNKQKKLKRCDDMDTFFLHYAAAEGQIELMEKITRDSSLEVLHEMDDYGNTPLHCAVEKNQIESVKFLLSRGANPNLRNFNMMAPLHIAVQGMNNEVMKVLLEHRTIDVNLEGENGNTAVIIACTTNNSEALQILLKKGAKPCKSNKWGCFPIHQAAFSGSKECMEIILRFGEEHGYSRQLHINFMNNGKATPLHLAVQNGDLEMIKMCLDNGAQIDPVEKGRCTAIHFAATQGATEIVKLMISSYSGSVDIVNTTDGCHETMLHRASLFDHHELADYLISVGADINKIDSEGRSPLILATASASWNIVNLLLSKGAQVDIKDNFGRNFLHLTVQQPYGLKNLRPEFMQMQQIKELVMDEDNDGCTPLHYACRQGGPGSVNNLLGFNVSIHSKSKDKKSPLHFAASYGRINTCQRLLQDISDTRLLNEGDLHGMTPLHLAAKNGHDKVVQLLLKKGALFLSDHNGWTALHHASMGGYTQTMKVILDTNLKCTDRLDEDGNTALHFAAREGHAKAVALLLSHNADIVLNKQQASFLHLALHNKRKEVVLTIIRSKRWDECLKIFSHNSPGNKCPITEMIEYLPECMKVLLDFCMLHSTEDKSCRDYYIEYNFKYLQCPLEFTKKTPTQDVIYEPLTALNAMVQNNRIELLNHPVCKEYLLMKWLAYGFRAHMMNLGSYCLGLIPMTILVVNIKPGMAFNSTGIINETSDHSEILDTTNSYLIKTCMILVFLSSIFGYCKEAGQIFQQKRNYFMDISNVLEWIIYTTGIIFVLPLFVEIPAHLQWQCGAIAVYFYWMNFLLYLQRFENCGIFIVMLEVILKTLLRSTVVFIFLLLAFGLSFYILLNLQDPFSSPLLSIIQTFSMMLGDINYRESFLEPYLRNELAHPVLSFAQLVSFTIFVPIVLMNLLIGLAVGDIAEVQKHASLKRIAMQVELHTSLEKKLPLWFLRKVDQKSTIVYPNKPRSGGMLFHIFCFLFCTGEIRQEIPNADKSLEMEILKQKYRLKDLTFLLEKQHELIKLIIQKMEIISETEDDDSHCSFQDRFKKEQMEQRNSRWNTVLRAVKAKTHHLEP
The series is described as follows: TRPA1 calcium imaging (Fura-2) in transfected KNRK cells. It counts as cell-based. As to conditions: positive control, 100 μM. The protocol: (§1) To further examine the specificity of C3, tests were conducted on TRPV1 channels and TRPA1 channels expressed in Kirsten murine sarcoma virus transformed rat kidney (KNRK) cells. KNRK cells were cultured as a monolayer and maintained in Dulbeccos’s Modified Eagles’s Medium (Life Technologies), supplemented with 10% fetal bovine serum (Life Technologies), 100 units/mL penicillin and 100 μg/mL streptomycin, in an incubator of 5% CO2 at 37 °C. After suspension, the cells were coated on cover slips for 12 h, then transiently transfected with cDNA (pc3.1 DNA) for TRPV1 or TRPA1 with Lipofectamine 2000 (Invitrogen) for 24 h, and loaded with Fura-2 AM™ (Molecular Probes) for 40 min at 37 °C. After washing and recovery, KNRK cells were imaged at 340 and 380 nm excitation to detect free calcium influx. An increase of 50% of the 340/380 ratio was considered as the response threshold which were measured under masked conditions for plasmids. Compounds were applied to the bath and calcium response was acquired by an inverted Nikon fluorescence microscope with a CoolSnap HQ2 CCD camera (Photometrics, Tucson, AZ). Data were quantified offline with the Nikon-NIS program.

Series [3] relates to TRPM8-sensory neurons. The series can be described thus: Calcium imaging of primary sensory neurons from Trpm8 EGFP mice. The following applies: menthol 100 μM. It counts as cell-based, mouse. The protocol: Calcium imaging was used to test the C3 selectivity on TRPM8-sensory neurons. Trpm8 ^+/EGFPmice were gifted by Dr. Yu-Qing Cao, Pain Center of Washington University in Saint Louis, School of Medicine, Missouri. Trigeminal ganglions and dorsal root ganglions from 4 to 5 weeks old mice were collected after CO2 euthanasia and digested for 30–40 min before plated on cover slips (8 mm), which were coated with poly-D-lysine for 40 min before use. Cover slips were gently washed with culture media to remove myelin after incubating for 35–40 min. Calcium imaging was done after incubation overnight at 37 °C, 5% CO2. Neurons were loaded with Fura-2 AM™ (Molecular Probes) for 30 min at room temperature. After washing and recovery, neurons were imaged at 340 and 380 nm excitation to detect free calcium influx. An increase of 50% of the 340/380 ratio was considered as the response threshold which were measured under blinded conditions for genotypes. Compounds were applied to the bath and calcium response was acquired by an inverted Nikon fluorescence microscope with a CoolSnap HQ2 CCD camera (Photometrics, Tucson, AZ). Data was quantified offline with the Nikon-NIS program.

Series [4] has as its system eye. The following applies: cited from earlier work.
For series [5], the system named is cornea. On the set-up: method as in ref 62 = [62]; 62. Sung MS, Lee HS, Yang JM, Kim JG, Wei ET, Kim SJ, Yoon KC. paper presented at the 111th Annual Meeting of the Korean Ophthalmological Society, Busan, South Korea. 2014. As to conditions: 2 mg/mL solution sprayed onto the closed eyelid; cited from earlier work.
Series [6] has as its system hNav1.7 (sodium channels). More on the design: method as in ref 63 = [63]; 63. Wei ET. Design of Topical Sensory/cooling TRPM8 agonists for cough. Abstracts of the First International Cough Conference, Guangzhou, China, November 10–11, 2013. As to conditions: 5 μM; cited from earlier work.
On the set-up of series [7]: method as in ref 28 = [28]; 28. Wei ET. Topical agents for the treatment of sensory discomfort in the nasal membranes. US20150265752 A1, Sept. 24, 2015. The following applies: cited from earlier work.
For series [8], the target named is T3, mouse TRPV1 (Mus musculus, UniProt Q704Y3).
T3 construct: expressed in transfected cells; host or cells: KNRK cells (rat kidney), transiently transfected
T3 sequence (Q704Y3 whole entry): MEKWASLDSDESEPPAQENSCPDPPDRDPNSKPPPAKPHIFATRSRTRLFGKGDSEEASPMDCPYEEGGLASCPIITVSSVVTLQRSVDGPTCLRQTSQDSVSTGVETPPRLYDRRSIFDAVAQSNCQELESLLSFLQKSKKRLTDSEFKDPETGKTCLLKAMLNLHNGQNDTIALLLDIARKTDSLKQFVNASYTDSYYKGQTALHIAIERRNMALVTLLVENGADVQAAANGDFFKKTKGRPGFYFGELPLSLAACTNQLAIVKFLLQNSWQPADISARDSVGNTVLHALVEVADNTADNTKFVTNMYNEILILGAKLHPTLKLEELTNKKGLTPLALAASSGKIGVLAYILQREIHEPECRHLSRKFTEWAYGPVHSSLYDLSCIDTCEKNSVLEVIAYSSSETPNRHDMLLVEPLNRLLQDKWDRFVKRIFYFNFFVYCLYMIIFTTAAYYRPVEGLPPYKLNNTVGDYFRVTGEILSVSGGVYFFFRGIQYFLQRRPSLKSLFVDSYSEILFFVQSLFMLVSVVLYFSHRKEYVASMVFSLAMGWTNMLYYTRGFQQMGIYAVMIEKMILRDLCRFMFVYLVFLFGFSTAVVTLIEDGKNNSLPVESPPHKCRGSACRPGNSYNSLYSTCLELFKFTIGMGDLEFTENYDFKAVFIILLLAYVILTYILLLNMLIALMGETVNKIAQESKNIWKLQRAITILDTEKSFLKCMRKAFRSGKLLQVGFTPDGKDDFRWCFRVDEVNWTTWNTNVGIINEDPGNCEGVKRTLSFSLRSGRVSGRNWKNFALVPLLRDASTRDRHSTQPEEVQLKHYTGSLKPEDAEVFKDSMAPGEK
The series can be described thus: TRPV1 calcium imaging (Fura-2) in transfected KNRK cells. It counts as cell-based. The following applies: 10 μM. The protocol:
as §1

T1 sequence (Q7Z2W7 whole entry): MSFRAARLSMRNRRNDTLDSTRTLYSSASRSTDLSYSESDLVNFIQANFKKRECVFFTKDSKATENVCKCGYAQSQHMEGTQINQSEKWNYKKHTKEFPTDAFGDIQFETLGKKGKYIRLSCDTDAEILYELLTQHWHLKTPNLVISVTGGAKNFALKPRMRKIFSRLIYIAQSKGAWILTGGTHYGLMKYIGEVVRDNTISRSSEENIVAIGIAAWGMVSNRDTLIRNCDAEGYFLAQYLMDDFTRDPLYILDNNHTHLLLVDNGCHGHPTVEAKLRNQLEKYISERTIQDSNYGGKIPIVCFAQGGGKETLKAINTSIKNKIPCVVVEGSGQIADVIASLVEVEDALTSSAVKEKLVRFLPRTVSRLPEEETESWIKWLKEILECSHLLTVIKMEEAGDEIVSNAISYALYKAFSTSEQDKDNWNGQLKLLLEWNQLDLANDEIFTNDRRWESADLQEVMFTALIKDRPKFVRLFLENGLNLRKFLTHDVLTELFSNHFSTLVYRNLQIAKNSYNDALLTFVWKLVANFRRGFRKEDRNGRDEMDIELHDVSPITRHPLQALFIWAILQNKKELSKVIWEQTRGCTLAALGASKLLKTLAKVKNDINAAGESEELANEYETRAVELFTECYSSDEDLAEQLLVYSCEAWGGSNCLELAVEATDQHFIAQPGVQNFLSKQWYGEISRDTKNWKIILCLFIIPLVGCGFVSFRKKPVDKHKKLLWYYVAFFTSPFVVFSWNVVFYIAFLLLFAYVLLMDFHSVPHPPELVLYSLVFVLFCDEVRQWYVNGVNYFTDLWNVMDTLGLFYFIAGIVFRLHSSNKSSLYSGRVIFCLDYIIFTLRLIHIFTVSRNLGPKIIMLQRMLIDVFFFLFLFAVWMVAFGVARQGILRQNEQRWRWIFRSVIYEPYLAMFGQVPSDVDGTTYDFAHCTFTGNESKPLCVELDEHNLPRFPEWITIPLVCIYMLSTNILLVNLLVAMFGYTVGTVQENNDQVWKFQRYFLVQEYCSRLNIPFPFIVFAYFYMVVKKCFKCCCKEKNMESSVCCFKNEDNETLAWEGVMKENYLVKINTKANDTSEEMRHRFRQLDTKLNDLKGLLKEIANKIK

On to `CCCCP(=O)(C(C)CC)C(C)CC` (stereo not shown) [1-di-sec-butylphosphoryl-4], for which the “relative potency to l-menthol (menthol = 1)” value (shortened to “relative potency to l-menthol”) in series [1] worked out at 0.3. The same measure, in the same setting: the same measure for `CCCCCP(=O)(C(C)C)C(C)C` [1-diisopropylphosphoryl-pentane]: 0.7. Same read-out and setting: the same measure for `CCCCCP(=O)(CC(C)C)CC(C)C` [1-diisobutylphosphoryl-pentane]: 0.2; for `CCC(C)P(=O)(CCC(C)C)C(C)CC` (stereo not shown) [1-di-sec-butylphosphoryl-3-methyl-butane]: 0.9; for `CCCCCCP(=O)(C(C)CC)C(C)CC` (stereo not shown) [1-di-sec-butylphosphoryl-hexane]: 4.7. Still for that read-out and setting: the same measure for `CCCCCCCCP(=O)(C(C)CC)C(C)CC` (stereo not shown) [1-di-sec-butylphosphoryl-octane]: 2.9.

On to `C=CCN=C=S` [mustard oil, reference compound], for which, in series [2], the “activation of TRPA1 (calcium response)” value is recorded as “active”. `CCCCCCP(=O)(C(C)C)C(C)C` [1-diisopropylphosphoryl-hexane]: in series [1], the “relative potency to l-menthol” value worked out at 1.6. Take `CC(C)[C@@H]1CC[C@@H](C)C[C@H]1O` [l-menthol, reference compound]: in series [3], the “calcium response of Trpm8 EGFPf/+ neurons” value is given as “sensitive”. Besides, the “eye sensation after menthol solutions” value in series [4] is given as “stinging followed by a brief episode of cooling”. As for `CCCCCCCP(=O)(C(C)CC)C(C)CC` (stereo not shown) [1-di-sec-butylphosphoryl-heptane], in series [1], the “relative potency to l-menthol” value came out at 3.4. For `CCCCCP(=O)(C(C)CC)C(C)CC` (stereo not shown) [1-di-sec-butylphosphoryl-pentane], the “relative potency to l-menthol” value in series [1] was 2.2. Moreover, the corneal sensitivity result in series [5] was “not affected”. In addition, the “lidocaine-like activity on hNav1.7” value in series [6] is “did not have lidocaine-like activity”. Regarding `O=C1NC(c2cccc([N+](=O)[O-])c2)=CCN1c1ccccc1O` [Icilin, icilin], the “solubility in ophthalmic vehicles” value in series [7] was “not soluble”. The “sensation on the eyelids” value in series [4] (anecdotal) was “punctate and long-lasting cooling”. Take `CCCCCCCCP(=O)(C(C)C)C(C)C` [1-diisopropylphosphoryl-octane]: the “relative potency to l-menthol” value in series [1] amounted to 5.4. On the same count and under the same terms, as for `CCCCCCCP(=O)(C(C)C)C(C)C` [1-diisopropylphosphoryl-heptane], the figure is 5.4.

Take `COc1cc(CNC(=O)CCCC/C=C/C(C)C)ccc1O` [capsaicin, reference compound]: in series [8], the “activation of TRPV1 (calcium response)” value is listed as “active”.
